Results published in patent US12194024B2, “Pharmaceutical composition of MDM2 inhibitor and use thereof for preventing and/or treating disease” (ASCENTAGE PHARMA (SUZHOU) CO., LTD., priority 2019, dated 2025).

Tests used:
[1] = test system: MV-4-11; assay: CellTiter-Glo (CTG) cell proliferation experiment; assay type: cell-based; conditions: Homo sapiens, MV4-11, TP53 wt, FLT3-ITD, 72 hours, read-out: IC50 values, nM (Mean ± SD, n = 2 or 3)
[2] = test system: MOLM-13 cells; assay: Annexin V-FITC/PI apoptosis by flow cytometer; assay type: cell-based, human; conditions: 48 hours
Excerpt: The activation of P53 signaling pathway can induce apoptosis, cycle arrest, or senility of cells. […] Therefore, Annexin V-PI fluorescence probe and flow cytometer are used for analyzing the apoptosis of MOML-13 cells after being treated with compound 2 alone or in combination with Decitabine, Azacitidine or Cytarabine (Ara-C).

[3] = test system: OCI-AML-3; assay: CellTiter-Glo (CTG) cell proliferation experiment; assay type: cell-based; conditions: Homo sapiens, TP53 wt, FLT3 wt, 72 hours, read-out: IC50 values, nM (Mean ± SD, n = 2 or 3)

SMILES: CCN1[C@@H](C(=O)NC23CCC(C(=O)O)(CC2)CC3)[C@H](c2cccc(Cl)c2F)[C@]2(C(=O)Nc3cc(Cl)ccc32)C12CCCCC2 [Compound 2]
- IC50 [1]: 166 ± 42.4 nM
- MOLM-13 cells being apoptotic (Annexin V+ cells) ([2]; 40 nM): about 31.0%
- MOLM-13 cells being apoptotic (Annexin V+ cells) ([2]; 110 nM): ~55.1%
- MOLM-13 cells being apoptotic (Annexin V+ cells) ([2]; 1000 nM): ~96.8%
- IC50 [3]: 316 ± 97 nM
